Data taken from patent publication US20070231874A1, “Crystal of glucokinase protein, and method for drug design using the crystal” (priority 2002, published 2007).

Molecular target: T1, glucokinase (Homo sapiens, UniProt P35557)
T1 sequence (P35557 1-466 isoform P35557-2): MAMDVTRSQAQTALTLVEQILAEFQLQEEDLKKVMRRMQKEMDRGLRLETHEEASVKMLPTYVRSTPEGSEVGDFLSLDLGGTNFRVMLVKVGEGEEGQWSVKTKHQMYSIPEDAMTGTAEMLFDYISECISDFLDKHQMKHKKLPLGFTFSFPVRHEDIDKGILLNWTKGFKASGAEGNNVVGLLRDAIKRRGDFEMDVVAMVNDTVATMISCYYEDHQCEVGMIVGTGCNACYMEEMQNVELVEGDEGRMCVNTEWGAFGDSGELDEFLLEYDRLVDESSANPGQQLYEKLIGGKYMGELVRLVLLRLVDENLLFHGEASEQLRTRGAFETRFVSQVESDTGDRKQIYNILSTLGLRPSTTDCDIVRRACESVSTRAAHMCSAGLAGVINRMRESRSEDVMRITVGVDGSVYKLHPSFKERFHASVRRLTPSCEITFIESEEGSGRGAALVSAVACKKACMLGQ
Test: glucokinase activity assay of compounds found by pharmacophore screening (activation relative to control)
Assay type: biochemical
Conditions: glucose 2.5 M, ligand 10 μM; activity of glucokinase is 100% in the case of control
Source text: Library compounds were screened using, as research conditions, pharmacophore of a hydrogen bond acceptor and hydrogen bond donor generated respectively from NH and CO of a main chain of Arg63, hydrophobic pharmacophore formed in a space corresponding to a phenyl group of an aniline part of a ligand forming a complex, and the protein surface made based on the structure of a protein, by using a software UNITY (manufactured by Tripos), and the following compound 4 and compound 5 were obtained and assayed, to confirm activities of 780% and 560%. An activity of 780% means that when the activity of glucokinase is 100% in the case of control, the activity is enhanced up to 780% by these compound (using glucose 2.5 M, and ligand 10 μM). [drawing 15]

SMILES	activity of glucokinase (control = 100%) [%]
CCOC(=O)c1csc(NC(=O)c2cc(Sc3ccncc3)ccc2N)n1 [compound 5]	560
Nc1ccc(Oc2ccccc2)cc1C(=O)Nc1nccs1 [compound 4]	780
